The record followed here is patent US20230157996A1, “SMALL-MOLECULE INHIBITOR TARGETING EB VIRUS NUCLEAR ANTIGEN PROTEIN, PREPARATION METHOD AND USE THEREOF” (priority 2020, published 2023).

Like-named read-outs stand apart in the source and are kept apart here. A value given as a limit tells only on which side of the number the result lay.

This assay relates to C666-1 cells. As to the kind of experiment: C666-1 cell viability single concentration (50 μM) inhibition rate (Resazurin). Conditions: Homo sapiens, C6661, 72 h, read-out: C666-1 cell viability single concentration (50 μM) inhibition rate, Ratio* (Inh %). The assay is classed as cell-based. The procedure, abridged:
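EBV-positive C666-1 cells (5×10^3/well), pre-cultured 24 h, were exposed to compound at 50 μmol/L final for 72 h at 37° C, 5% CO2, in duplicate. Viability by resazurin (3 h, ex 560/em 590 nm); inhibition rate computed relative to DMSO control and medium-only blank.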
A general note: Alamar Blue is a resazurin reagent that responds to reducing activity.

Setting [1] is: 50 μM compound, 72 hours, C666-1 cells.

For the molecule `O=C(O)c1cccc(N2CC3(CN(c4ccccc4)C3)C2)c1-n1cccc1` [Compound 11, 3-(6-phenyl-2,6-diazaspiro[3.3]heptan-2-yl)-2-(1H-pyrrol-1-yl)benzoic acid], the inhibition at 50 µM under setting [1] was below 10%.
With `COC(=O)c1cccc(N2CC3(CN(c4cccc(NS(=O)(=O)C5CC5)c4)C3)C2)c1N` [Compound 31, Methyl 2-amino-3-(6-(3-(cyclopropylsulfonamido)phenyl)-2,6-diazaspiro[3.3]heptan-2-yl)benzoate], the inhibition at 50 µM under setting [1] lay in the range of 10 to 30%.
The same measure, in the same setting: the value for `COC(=O)c1cccc(N2CC(Oc3ccc(CO)cc3)C2)c1-c1ccc(-c2ccccc2)cc1` [Compound 63, Methyl 6-(3-(4-(hydroxymethyl)phenoxy)azetidin-1-yl)-[1,1′:4′,1″-terphenyl]-2-formate] was 10 to 30%; that for `Nc1ccccc1OC1CN(c2cccc(C(=O)O)c2-n2cccc2)C1` [Example 256, 3-(3-(2-aminophenoxy)azetidin-1-yl)-2-(1H-pyrrol-1-yl)benzoic acid] was above 50%; that for `Nc1ccccc1N1CC2(C1)CN(c1cccc(C(=O)O)c1N)C2` [Compound 12, 2-amino-3-(6-(2-aminophenyl)-2,6-diazaspiro[3.3]heptan-2-yl)benzoic acid] was below 10%.
As to `COC(=O)c1cccc(N2CC(Oc3ccc(CO)c(C)c3)C2)c1-n1cccc1` [Example 251, Methyl 3-(3-(4-(hydroxymethyl)-3-methylphenoxy)azetidin-1-yl)-2-(1H-pyrrol-1-yl)benzoate], the inhibition at 50 µM under setting [1] was above 50%.
In the case of `COC(=O)c1cccc(N2CC(Oc3ccc(C(F)(F)F)cc3)C2)c1-n1cccc1` [Compound 81, Methyl 2-(1H-pyrrol-1-yl)-3-(3-(4-(trifluoromethyl)phenoxy)azetidin-1-yl)benzoate], under setting [1], the inhibition at 50 µM fell in the range of 10 to 30%.
With `COC(=O)c1cccc(N2CC(Oc3ccc(Oc4ccc(C#N)cc4)cc3)C2)c1-n1cccc1` [Example 210, Methyl 3-(3-(4-(4-cyanophenoxy)phenoxy)azetidin-1-yl)-2-(1H-pyrrol-1-yl)benzoate], the inhibition at 50 µM under setting [1] was 10 to 30%.
In the case of `COC(=O)c1cccc(N2CC(Sc3ccc(CO)cc3)C2)c1-n1cccc1` [Example 352, Methyl 3-(3-((4-(hydroxymethyl)phenyl)thio)azetidin-1-yl)-2-(1H-pyrrol-1-yl)benzoate], the inhibition at 50 µM under setting [1] was above 50%.
As for `O=C(O)c1cccc(N2CC(Oc3ccc(CO)cc3)C2)c1-c1cc(F)cc(F)c1` [Compound 62, 3′,5′-difluoro-6-(3-(4-(hydroxymethyl)phenoxy)azetidin-1-yl)-[1,1′-biphenyl]-2-formic acid], under setting [1], the inhibition at 50 µM is below 10%.
As to `O=C(O)c1cccc(-c2cn(-c3ccc(CO)cc3)nn2)c1-c1ccc2cc[nH]c2c1` [Example 186, 3-(1-(4-(hydroxymethyl)phenyl)-1H-1,2,3-triazol-4-yl)-2-(1H-indol-6-yl)benzoic acid], the inhibition at 50 µM under setting [1] is below 10%.
Take `COC(=O)c1cccc(N2CC(S(=O)(=O)c3ccc(C)cc3)C2)c1-n1cccc1` [Example 192, Methyl 2-(1H-pyrrol-1-yl)-3-(3-(p-tolylsulfonyl)azetidin-1-yl)benzoate]: the inhibition at 50 µM under setting [1] lay within 10 to 30%.
Same read-out and setting: the value for `Cc1ccc(S(=O)(=O)n2ccc3cc(OC4CN(c5cccc(C(=O)O)c5-n5cccc5)C4)ccc32)cc1` [Example 305, 3-(3-((1-p-tolylsulfonyl-1H-indol-5-yl)oxy)azetidin-1-yl)-2-(1H-pyrrol-1-yl)benzoic acid] was below 10%.
As for `Cc1ccc([S+]([O-])C2CN(c3cccc(C(=O)O)c3-n3cccc3)C2)cc1` (stereo not shown) [Example 193], the inhibition at 50 µM under setting [1] was below 10%.
As for `COC(=O)c1cccc(N2CC3(CN(c4cccc(NS(C)(=O)=O)c4)C3)C2)c1[N+](=O)[O-]` [Compound 27, Methyl 3-(6-(3-(methylsulfonamido)phenyl)-2,6-diazaspiro[3.3]heptan-2-yl)-2-nitrobenzoate], the inhibition at 50 µM under setting [1] is below 10%.
Still for that read-out and setting: with `COC(=O)c1cccc(N2CC(Oc3ccc(C(=O)C(C)C)cc3)C2)c1-n1cccc1` [Example 216, Methyl 3-(3-(4-isobutyrylphenoxy)azetidin-1-yl)-2-(1H-pyrrol-1-yl)benzoate] the figure was below 10%; with `COC(=O)c1cccc(N2CC(OC(=O)NC3CC3)C2)c1-n1cccc1` [Example 155, Methyl 3-(3-((cyclopropylcarbamoyl)oxy)azetidin-1-yl)-2-(1H-pyrrol-1-yl)benzoate], 10 to 30%; with `CN(C)CCNC(=O)c1cccc(N2CC(Oc3ccc(CO)cc3)C2)c1-n1cccc1` [Example 396, N-(2-dimethylamino)ethyl-3-(3-(4-(hydroxymethyl)phenoxy)azetidin-1-yl)-2-(1H-pyrrol-1-yl)benzamide], below 10%.
`COC(=O)c1cccc(N2CC(Oc3ccc(NC(=O)Nc4cccc(C#N)c4)cc3)C2)c1-n1cccc1` [Example 137, Methyl 3-(3-(4-(3-(3-cyanophenyl)ureido)phenoxy)azetidin-1-yl)-2-(1H-pyrrol-1-yl)benzoate]: the inhibition at 50 µM under setting [1] was above 50%.
For `COC(=O)c1cccc(N2CC(Oc3ccc(CO)cc3)C2)c1-c1cc(F)cc(F)c1` [Compound 61, Methyl 3′,5′-difluoro-6-(3-(4-(hydroxymethyl)phenoxy)azetidin-1-yl)-[1,1′-biphenyl]-2-formate], under setting [1], the inhibition at 50 µM was in the range of 10 to 30%.
Turning to `O=C(O)c1cccc(N2CC(OC(=S)Nc3ccc(Cl)cc3)C2)c1-n1cccc1` [Example 148, 3-(3-(((4-chlorophenyl)thiocarbamoyl)oxy)azetidin-1-yl)-2-(1H-pyrrol-1-yl)benzoic acid], under setting [1], the inhibition at 50 µM was below 10%.
With `COC(=O)c1cccc(N2CC(Oc3ccc(CO)cc3)C2)c1-c1cccc(C#N)c1` [Compound 55], under setting [1], the inhibition at 50 µM lay within 10 to 30%.
Take `COC(=O)c1cccc(N2CC(Oc3ccc(NC(=O)NC4CCCCC4)cc3)C2)c1-n1cccc1` [Example 130, Methyl 3-(3-(4-(3-cyclohexylureido)phenoxy)azetidin-1-yl)-2-(1H-pyrrol-1-yl)benzoate]: the inhibition at 50 µM under setting [1] was below 10%.
Turning to `COC(=O)c1cccc(N2CC(Oc3cc(F)nc(F)c3)C2)c1-n1cccc1` [Example 284, Methyl 3-(3-((2,6-difluoropyridin-4-yl)oxy)azetidin-1-yl)-2-(1H-pyrrol-1-yl)benzoate], the inhibition at 50 µM under setting [1] is below 10%.
On to `Cn1ccc2cc(CN(C#Cc3cccc(C(=O)O)c3-n3cccc3)S(=O)(=O)c3ccc4occc4c3)ccc21` [Example 339, Lithium 3-((N-((1-methyl-1H-indol-5-yl)methyl)benzofuran-5-sulfonamido)ethynyl)-2-(1H-pyrrol-1-yl)benzoate], for which the inhibition at 50 µM was below 10%.
In the case of `COC(=O)c1cccc(N2CC(S(=O)(=O)c3ccc(Cl)cc3)C2)c1-n1cccc1` [Example 354, Methyl 3-(3-((4-chlorophenyl)sulfonyl)azetidin-1-yl)-2-(1H-pyrrol-1-yl)benzoate], the inhibition at 50 µM under setting [1] was in the range of 10 to 30%.
Take `COC(=O)c1cccc(N2CC(NC(=S)Nc3ccc(Cl)cc3)C2)c1-n1cccc1` [Example 174, Methyl 3-(3-(3-(4-chlorophenyl)thioureido)azetidin-1-yl)-2-(1H-pyrrol-1-yl)benzoate]: the inhibition at 50 µM under setting [1] was above 50%.
Take `O=C(O)c1cccc(N2CC(Oc3ccc(CNCc4ccccc4)cc3)C2)c1-n1cccc1` [Example 365]: under setting [1], the inhibition at 50 µM was below 10%.
On the same count and under the same terms, with `O=C(O)c1cccc(N2CC(Oc3ccc(CO)cc3)C2)c1-c1cccc(F)c1` [Compound 51] the figure was below 10%.
For `O=C(O)c1cccc(C#CN(Cc2ccccc2)S(=O)(=O)c2cccs2)c1-n1cccc1` [Example 323, Lithium 3-((N-benzylthiophen-2-sulfonamido)ethynyl)-2-(1H-pyrrol-1-yl)benzoate], the inhibition at 50 µM is below 10%.
With `CC(=O)NCc1ccc(OC2CN(c3cccc(C(=O)O)c3-n3cccc3)C2)cc1` [Compound 77, 3-(3-(4-(acetylaminomethyl)phenoxy)azetidin-1-yl)-2-(1H-pyrrol-1-yl)benzoic acid], the inhibition at 50 µM under setting [1] is below 10%.
Same read-out and setting: the value for `COC(=O)c1cccc(-c2cn(-c3ccc(CO)cc3)nn2)c1-c1ccc2cc[nH]c2c1` [Example 269, Methyl 3-(1-(4-(hydroxymethyl)phenyl)-1H-1,2,3-triazol-4-yl)-2-(1H-indol-6-yl)benzoate] was 30 to 50%; that for `COC(=O)c1cccc(N2CC(Sc3ccc(C(C)C)cc3)C2)c1-n1cccc1` [Example 348, Methyl 3-(3-((4-isopropylphenyl)thio)azetidin-1-yl)-2-(1H-pyrrol-1-yl)benzoate] was below 10%.
Same read-out and setting: with `COC(=O)c1cccc(N2CC(Oc3ccc(CNC(=O)NC4CC4)cc3)C2)c1-n1cccc1` [Example 242, Methyl 3-(3-(4-((3-cyclopropylureido)methyl)phenoxy)azetidin-1-yl)-2-(1H-pyrrol-1-yl)benzoate] the figure was 10 to 30%; with `CCNC(=S)NC1CN(c2cccc(C(=O)O)c2-n2cccc2)C1` [Example 173, 3-(3-(3-ethylthioureido)azetidin-1-yl)-2-(1H-pyrrol-1-yl)benzoic acid], below 10%.
The same measure, in the same setting: with `COC(=O)c1cccc(N2CC(Oc3ccc(CNS(=O)(=O)C4CC4)cc3)C2)c1-n1cccc1` [Compound 78, Methyl 3-(3-(4-(cyclopropylsulfonamidomethyl)phenoxy)azetidin-1-yl)-2-(1H-pyrrol-1-yl)benzoate] the figure was above 50%; with `COC(=O)c1cccc(N2CC(Oc3ccc(OC4CCCCO4)cc3)C2)c1-n1cccc1` (stereo not shown) [Example 308, Methyl 3-(3-(4-((tetrahydro-2H-pyran-2-yl)oxy)phenoxy)azetidin-1-yl)-2-(1H-pyrrol-1-yl)benzoate], below 10%.
